The values below come from patent publication US6337333B1, “Method of treating autoimmune disease with fludarabine-5′-monophosphate” (priority 1992, dated 2002).

The subject of series [1] is collagen-induced arthritis. Particulars: 1 and 10 mg/kg/day injected days 0-10 or days 10-20.
Procedure: The study involves two treatment schedules (47). In Schedule I, FLP is injected on a daily basis on days 0-10 at doses of 1 and 10 mg/kg/day. In Schedule II, FLP is injected at days 10-20 at 1 and 10 mg/kg/day. […] Clinical, histological, EIA, and flowcytometry are employed to follow the progress of the disease.
Series [2] has as its system CD20 positive B lymphocytes. Particulars: 48 hr culture with and without PWM, dose range 0.1-5.0 μg/ml, FIG. 3.
Procedure: In FIG. 3, freshly isolated PBMC enriched for CD20 positive B lymphocytes (50% CD19, 45% CD20, 10% CD20/CD5 and 30% CD3/CD5) were cultured over 48 hr with various concentrations of FLP with and without PWM (5 μg/ml). The cells were washed once in C-BSS, and resuspended in 0.5 ml C-BCC with 5 μl of PI. Percent viable CD20 positive cells were determined by analysis on a FACScan using the LYSIS II software. Results are expressed as percent of total gated viable cells.
For viability determination of unfixed samples, 5 μl of a 500 mg/ml stock—solution of propidium iodide (PI) was added to the samples (0.5 ml)—immediately before acquisition.
A dose range of drug between 0.1-5.0 μg/ml was performed on PBMC enriched for B lymphocytes cultured for 48 hr with and without the mitogen PWM (FIG. 3). At the end of the culture period, the cells were washed, stained, and analyzed by flowcytometry for viable CD20 positive B lymphocytes.
Series [3] concerns B cell subtypes. To be noted: 0.1-1.0 μg/ml for 48 hr, then 5 to 10 days SAC/rIL-2; data not shown. Here is the method: B lymphocytes are incubated with drug (0.1-1.0 μg/ml) for 48 hr, followed by 5 to 10 days culture with SAC/rIL-2. The supernatant is then assayed at 5 and 10 days for IgM, IgG, and IgM-RF. Analyze the cells by flowcytometry at day 5 for CD20, CD20/CD5, CD5/sIgM, CD5/IgG, CD20/5/sIgM, and CD20/5 sIgG.

For series [4], the system named is B lymphocytes. The experiment in a line: B lymphocyte proliferative response to mitogen after 18 hr drug pretreatment (3H-thymidine). The format is cell-based, human. Particulars: 18 hr pretreatment; for % Suppression: B lymphocytes. Here is the method: (§1) In FIG. 1, freshly isolated PBMC were enriched for T and B lymphocytes using Nylon Wool (see Materials and Methods, Example A). The enriched lymphocyte subpopulations were then incubated for 18 hrs at 37° C. with various concentrations of drug. At the end of the pretreatment period, the cell samples were washed, adjusted to 2×10^5 viable cells/ml, and cultured at 1×10^4/well in flat (B cells) or round (T cells) bottomed 96 well microtiter plates in […]. The T cells were incubated for 3 days with PHA-P ([…]) or Con A (5 μg/ml) and the B cells were cultured for 6 days with either PWM (2 μg/ml) or SAC ({fraction (1/60,000)}). 1 μCi of ^3H-thymidine was added per well during the last 18 hr of culture. The wells were then harvested onto glass fiber filters, and counted in 7 ml of Cytoscint (ICN) on the LKB 1219 Rackbeta scintillation counter. The results are expressed as the mean cpm of triplicate wells.
(§2) Peripheral blood mononuclear cells obtained from normal donors as packed leukocyte preparations were enriched for T and B lymphocytes and pretreated with drug for 18 hrs prior to mitogen stimulation.
(§3) Peripheral blood mononuclear cells enriched for either T or B lymphocytes were incubated for 18 hrs in complete S-10 medium at 37° C. in 12×75 mm culture tubes at 5×10^5 cells/ml. The cells were then washed in S-10 and cultured in triplicate for either 3 (T lymphocytes) or 6 (B lymphocytes) days at 2.5×10^4/well in round bottom 96-well microtiter plates in S-10 medium at 37° C. and a 5% CO2 humidified atmosphere. The wells were pulsed with 1 μCi 3H-thymidine for the last 18 hr of culture, harvested onto glass fiber filters, and counted with 7 ml Cytoscint with a LKB Rackbeta scintillation counter. The results are reported as “percent Suppression”:
(§4) % Suppression={1−(mean cpm exp./mean cpm stim control)}×100

The conditions of series [5]: B-CLL patients; cited from earlier work.
The test system of series [6] is T lymphocytes. Briefly: T lymphocyte proliferative response to mitogen after 18 hr drug pretreatment (3H-thymidine). The format is cell-based, human. Particulars: 18 hr pretreatment; for % Suppression: T lymphocytes. Here is the method:
as §1, §2, §3, §4

The test system of series [7] is human T-lymphoblastoid cell lines. To be noted: cited from earlier work.

Structures are written as SMILES.

`Nc1nc(F)nc2c1ncn2[C@@H]1O[C@H](COP(=O)(O)O)[C@@H](O)[C@@H]1O` [FLP, fludarabine-5′-monophosphate]: the “activity in arthritis model” value in series [1] is given as “active following onset of disease”. Further, the “concentration at which effect on viable CD20 positive B lymphocytes becomes evident” value in series [2] was found to be 0.5 µg/mL. Also, the “sensitivity of B cell subtypes to drug” value in series [3] is “CD5 positive B cells are found to be more sensitive”. Further, in series [4] (FIG. 1B), the “suppression of B lymphocyte's ability to respond to mitogen” value is on record as “suppress”. The “% Suppression” value in series [4] (PWM (1 μg/ml), BC5, 1 μg/ml of drug) amounted to 59%; in series [4] (PWM (1 μg/ml), BC5, 5 μg/ml of drug) it was 47%; in series [4] (PWM (1 μg/ml), BC6, 1 μg/ml of drug), 11%; in series [4] (PWM (1 μg/ml), BC6, 5 μg/ml of drug), 40%; in series [4] (PWM (1 μg/ml), BC7, 1 μg/ml of drug), 16%; in series [4] (PWM (1 μg/ml), BC7, 5 μg/ml of drug), 65%. The “% Suppression” value in series [4] (SAC I (1/60,000), BC5, 1 μg/ml of drug) stood at 14%; in series [4] (SAC I (1/60,000), BC5, 5 μg/ml of drug) it was 5%; in series [4] (SAC I (1/60,000), BC6, 1 μg/ml of drug), 0%; in series [4] (SAC I (1/60,000), BC6, 5 μg/ml of drug) it was 49%; in series [4] (SAC I (1/60,000), BC7, 1 μg/ml of drug) it was 55%; in series [4] (SAC I (1/60,000), BC7, 5 μg/ml of drug) it was 73%. The “% Suppression” value in series [6] (CON A (5 μg/ml), BC5, 5 μg/ml of drug) came to 29%; in series [6] (CON A (5 μg/ml), BC6, 1 μg/ml of drug), 4%; in series [6] (CON A (5 μg/ml), BC6, 5 μg/ml of drug), 29%; in series [6] (CON A (5 μg/ml), BC7, 1 μg/ml of drug), 16%; in series [6] (CON A (5 μg/ml), BC7, 5 μg/ml of drug) it was 40%; in series [6] (CON A (5 μg/ml), leukocyte preparation BC5, 1 μg/ml of drug), 6%. The “% Suppression” value in series [6] (PHA-P (5 μg/ml), BC5, 1 μg/ml of drug) was found to be 24%; in series [6] (PHA-P (5 μg/ml), BC5, 5 μg/ml of drug) it was 32%; in series [6] (PHA-P (5 μg/ml), BC6, 1 μg/ml of drug), 0%; in series [6] (PHA-P (5 μg/ml), BC6, 5 μg/ml of drug), 15%; in series [6] (PHA-P (5 μg/ml), BC7, 1 μg/ml of drug), 25%; in series [6] (PHA-P (5 μg/ml), BC7, 5 μg/ml of drug), 50%. Further, the “peak concentration of F-ara-ATP in the lymphocytes relative to the serum peak” value in series [5] is given as 10 fold. In addition, the “suppression of T lymphocyte's ability to respond to mitogen” value in series [6] (FIG. 1A) is given as “suppress”.
As for `Nc1nc(Cl)nc2c1ncn2[C@H]1C[C@H](O)[C@@H](CO)O1` [2CDA, 2-chlorodeoxyadenosine], the “levels giving growth inhibition” value in series [7] is recorded as “nanomolar levels”.
